Data published in US8541363B2, “Pyruvamide compounds as inhibitors of dust mite group 1 peptidase allergen and their use” (St George's Hosptial Medical School, priority 2010, dated 2013).
Read-outs that look alike come from different tables or passages of the source.

How the values were obtained:
Der p 1 = Der p 1 (Dermatophagoides pteronyssinus (European house dust mite), UniProt P08176); assay: Der p 1 enzyme activity assay (FRET fluorogenic substrate); format: biochemical
[1] = tested on: Brown Norway rats sensitized to HDM allergens; assay: Allergen challenge study in vivo (acute allergic bronchoconstriction); parameters: species or system rat; details: challenge 2 hours after intratracheal dosing (100 μL of a 40 μM solution), P<0.05, Mann-Whitney Rank Sum Test
Protocol: The studies were performed in male Brown Norway rats (approximate weight 350 g at time of allergen challenge) obtained from Harlan UK Ltd. Each animal was allocated a unique identification number after sensitisation, identified by a waterproof tail mark, and randomly assigned to a treatment group. All studies were conducted in accordance with the Animals (Scientific Procedures) Act 1986, with UK Home Office Guidance on the implementation of the Act and with all applicable Codes of Practice for the care and housing of laboratory animals.
A mixture of HDM allergens was harvested from a laboratory culture of Dermatophagoides pteronyssinus. Allergen dose was standardized according to the Der p 1 content of the mixture as determined by an ELISA measurement referenced against the IUIS standard for Der p 1. […]
On Day 21 of the sensitization and challenge protocol, rats were anaesthetised with pentobarbitone (100 mg/kg, i.p.) and ventilated via a tracheal cannula (approximately 7 mL/kg, 1 Hz) with a mixture of air and oxygen (50:50). […] Ventilation was monitored by a flow transducer (Fleisch, type 0000) in-line with the respiratory pump. […] From these measurements of flow and differential pressure, both airways resistance (RL) and dynamic compliance (Cdyn) were calculated for each respiratory cycle on a digital electronic respiratory analyser (PMS, Mumed Ltd, UK). […]

[2] = Table 1, read-out: Der p 1 IC50

Chain of Der p 1 (P08176 99-320): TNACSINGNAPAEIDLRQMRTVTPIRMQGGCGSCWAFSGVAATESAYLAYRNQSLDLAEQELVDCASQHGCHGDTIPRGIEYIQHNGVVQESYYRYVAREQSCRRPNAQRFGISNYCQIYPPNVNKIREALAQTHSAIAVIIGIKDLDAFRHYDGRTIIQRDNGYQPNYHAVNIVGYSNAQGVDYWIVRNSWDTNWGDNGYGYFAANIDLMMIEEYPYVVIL

Structure (SMILES) | IC50 (Der p 1; Der p 1 IC50) [nM] | IC50 (Der p 1; [2]) [nM] | magnitude of second allergen challenge (change in airway resistance) compared to first challenge [1]
CC(C)[C@H](NC(=O)[C@H](C)NC(=O)[C@@H](NC(=O)c1ccncc1)C(C)(C)C)C(=O)C(=O)NC1CCCCC1 [PVA-038] | < 20 | 13.3 | significantly reduced
CC(C)[C@H](NC(=O)[C@H](C)NC(=O)[C@@H](NC(=O)c1ccccc1)C(C)(C)C)C(=O)C(=O)NC1CCCCC1 [PVA-026] | < 20 | 14 | significantly reduced
